Experimental findings from ChEMBL document CHEMBL1135950, “Decoding region bubble size and aminoglycoside antibiotic binding” (Bioorg Med Chem Lett, 2002) are described below.

The structures appear in SMILES notation.

Assay type in all cases: nucleic-acid assay, Homo sapiens; call rule not given here
The target of test [1] is Nucleic Acid. The test is described as follows: Dissociation constant for binding to mitochondrial 12S rRNA construct M5 was determined.
The target of test [2] is Nucleic Acid. The test is described as follows: Dissociation constant for binding to mitochondrial 12S rRNA construct M3 was determined.
In test [3] the test system is Nucleic Acid. Put plainly: Dissociation constant for binding to mitochondrial 12S rRNA construct M1 was determined; NB= No binding.
Test [4] has as its target Nucleic Acid. Put plainly: Dissociation constant for binding to mitochondrial 12S rRNA construct M4 was determined.
Test [5] addresses Nucleic Acid. Put plainly: Dissociation constant for binding to mitochondrial 12S rRNA construct M2 was determined.

Usually Kd stands for a measure of binding affinity in units of concentration. Higher therefore signals weaker binding. For the compound `CN(C)c1ccc2c(-c3ccc(C(=O)NCC4O[C@H](O[C@@H]5C(O)[C@H](O[C@@H]6C(O)[C@H](N)CC(N)[C@H]6O[C@H]6OC(CO)[C@@H](O)[C@H](O)C6N)O[C@@H]5CO)[C@H](N)C(O)[C@@H]4O)cc3C(=O)[O-])c3ccc(=[N+](C)C)cc-3oc2c1` (stereo partly specified), the Kd on Nucleic Acid [1] is 0.33 µM; on Nucleic Acid [2], 0.26 µM; in the test with Nucleic Acid [3], “Not Active”; on Nucleic Acid [4], 0.75 µM; on Nucleic Acid [5], 0.27 µM.

Turning to `NC[C@@H]1O[C@H](O[C@H]2[C@@H](O)[C@H](O[C@@H]3[C@@H](O)[C@H](N)C[C@H](N)[C@H]3O[C@H]3O[C@H](CN)[C@@H](O)[C@H](O)[C@H]3N)O[C@@H]2CO)[C@H](N)[C@@H](O)[C@@H]1O` [FRAMYCETIN], the Kd at Nucleic Acid [1] was 3.97 µM; at Nucleic Acid [2] it was 0.12 µM; on Nucleic Acid [4], 0.16 µM; at Nucleic Acid [5] it was 0.14 µM.

In the case of `NC[C@H]1O[C@H](O[C@H]2[C@H](O)[C@@H](O[C@H]3O[C@H](CO)[C@@H](O)[C@H](N)[C@H]3O)[C@H](N)C[C@@H]2N)[C@H](O)[C@@H](O)[C@@H]1O` [KANAMYCIN], the dissociation constant (Kd) at Nucleic Acid [1] came out at 2.64 µM; on Nucleic Acid [2], 2.08 µM; on Nucleic Acid [4] it was 13.6 µM; at Nucleic Acid [5] it was 3.46 µM.

As to `NC[C@@H]1O[C@H](O[C@H]2[C@@H](O)[C@H](O[C@@H]3[C@@H](O)[C@H](N)C[C@H](N)[C@H]3O[C@H]3O[C@H](CO)[C@@H](O)[C@H](O)[C@H]3N)O[C@@H]2CO)[C@H](N)[C@@H](O)[C@@H]1O` [PAROMOMYCIN], the Kd on Nucleic Acid [1] was determined as 5.85 µM; at Nucleic Acid [2] it was 0.44 µM; on Nucleic Acid [4], 12.6 µM; at Nucleic Acid [5], 3.83 µM.

For `NC[C@H]1O[C@H](O[C@H]2[C@H](O)[C@@H](O[C@H]3O[C@H](CO)[C@@H](O)[C@H](N)[C@H]3O)[C@H](N)C[C@@H]2N)[C@H](N)C[C@@H]1O` [TOBRAMYCIN], the Kd turned out to be 5.37 µM on Nucleic Acid [1], 0.43 µM at Nucleic Acid [2], 2.91 µM on Nucleic Acid [4] and 3.26 µM at Nucleic Acid [5].
